Columns and labels:
human μ opiate receptor = biological target: T1, human μ opiate receptor (Homo sapiens, UniProt P35372); test: Affinity for human μ opiate receptor ([3H]-naloxone displacement, SPA); format: binding; settings: for inhibition at 1 µM / μ opioid receptor, % inhibition [1 μM]: 1 μM test substance, inhibition of specific [3H]-naloxone binding; for inhibition at 1 µM: read-out: μ opioid receptor, % inhibition [1 μM]; for Ki: Cheng-Prusoff conversion from IC50, read-out: μ opioid receptor, Ki
T1 construct: purchased PerkinElmer Life Sciences, Zaventem, Belgium RB-HOM; host or cells: CHO-K1 cells (membrane preparation)
T1 sequence (P35372 whole entry): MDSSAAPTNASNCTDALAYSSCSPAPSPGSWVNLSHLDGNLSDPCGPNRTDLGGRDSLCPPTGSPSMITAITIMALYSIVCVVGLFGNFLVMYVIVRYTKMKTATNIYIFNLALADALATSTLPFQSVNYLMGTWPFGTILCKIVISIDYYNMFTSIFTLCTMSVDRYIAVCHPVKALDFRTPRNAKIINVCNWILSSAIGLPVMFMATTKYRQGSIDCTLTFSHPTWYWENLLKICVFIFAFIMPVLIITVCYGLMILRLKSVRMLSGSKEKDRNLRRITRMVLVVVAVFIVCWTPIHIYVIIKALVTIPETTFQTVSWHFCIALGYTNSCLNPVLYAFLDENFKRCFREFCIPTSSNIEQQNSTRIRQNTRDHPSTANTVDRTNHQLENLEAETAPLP
Method: Method for Determining Affinity for Human μ Opiate Receptor
Receptor affinity for the human μ opiate receptor is determined in a homogeneous batch in microtitre plates. To this end, dilution series of the substances to be tested are incubated in a total volume of 250 μl for 90 minutes at room temperature with a receptor membrane preparation (15-40 μg protein/250 μl incubation batch) of CHO-K1 cells which express the human μ-opiate receptor (RB-HOM receptor membrane preparation from PerkinElmer Life Sciences, Zaventem, Belgium) in the presence of 1 nmol/l of the radioactive ligand [^3H]-naloxone (NET719, from PerkinElmer Life Sciences, Zaventem, Belgium) and 1 mg of WGA-SPA beads (wheat germ agglutinin SPA beads from Amersham/Pharmacia, Freiburg, Germany). 50 mmol/l of tris HCl supplemented with 0.06% bovine serum albumin is used as the incubation buffer. Nonspecific binding is determined by additionally adding 100 μmol/l of naloxone. Once the ninety minute incubation time has elapsed, the microtitre plates are centrifuged off for 20 minutes at 1000 g and the radioactivity measured in a β counter (Microbeta-Trilux, from PerkinElmer Wallac, Freiburg, Germany). The percentage displacement of the radioactive ligand from its binding to the human μ opiate receptor is determined at a concentration of the test substances of 1 μmol/l and stated as percentage inhibition of specific binding. On the basis of the percentage displacement brought about by different concentrations of the test substances, IC50 inhibition concentrations which result in a 50% displacement of the radioactive ligand are calculated. Ki values for the test substances are obtained by conversion using the Cheng-Prusoff equation.

Serotonin reuptake = biological target: T2, Serotonin reuptake (Rattus norvegicus, UniProt P31652); test: Serotonin (5HT) reuptake inhibition in rat brain synaptosomes; format: biochemical
T2 construct: synaptosomes are freshly isolated from rat brain regions; from tissue; host or cells: rat brain synaptosomes (P2 fraction)
T2 sequence (P31652 whole entry): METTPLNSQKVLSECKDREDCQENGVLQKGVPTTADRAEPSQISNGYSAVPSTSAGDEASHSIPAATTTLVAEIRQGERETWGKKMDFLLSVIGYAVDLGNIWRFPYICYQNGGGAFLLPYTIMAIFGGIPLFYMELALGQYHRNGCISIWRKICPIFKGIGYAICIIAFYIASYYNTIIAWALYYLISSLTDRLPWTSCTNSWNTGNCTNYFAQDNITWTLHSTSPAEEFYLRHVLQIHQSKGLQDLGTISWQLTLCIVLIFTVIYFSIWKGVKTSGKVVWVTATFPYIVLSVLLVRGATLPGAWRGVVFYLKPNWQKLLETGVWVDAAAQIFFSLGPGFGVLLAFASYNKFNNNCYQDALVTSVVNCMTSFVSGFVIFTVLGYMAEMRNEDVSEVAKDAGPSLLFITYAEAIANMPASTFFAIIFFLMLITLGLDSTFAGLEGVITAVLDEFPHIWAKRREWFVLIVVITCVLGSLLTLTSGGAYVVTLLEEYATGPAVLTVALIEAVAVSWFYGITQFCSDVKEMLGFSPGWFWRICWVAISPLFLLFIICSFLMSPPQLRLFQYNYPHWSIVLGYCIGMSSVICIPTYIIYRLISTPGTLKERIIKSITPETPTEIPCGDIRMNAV
Method: (§1) Noradrenalin (NA) and Serotonin (5HT) Reuptake Inhibition
(§2) In order to be able to carry out these in vitro studies, synaptosomes are freshly isolated from rat brain regions. A “P2” fraction is used, which is prepared according to the instructions given by Gray and Whittaker (E. G. Gray and V. P. Whittaker (1962) J. Anat. 76, 79-88). For NA uptake, these vesicular particles are isolated from the hypothalamus of male rat brains.
(§3) A detailed description of the method may be found in the literature (M. Ch. Frink, H.-H. Hennies, W. Engiberger, M. Haurand and B. Wilffert (1996) Arzneim.-Forsch./Drug Res. 46 (III), 11, 1029-1036).

Noradrenalin reuptake = biological target: T3, Noradrenalin reuptake (Rattus norvegicus, UniProt Q63380); test: Noradrenalin (NA) reuptake inhibition in rat hypothalamus synaptosomes; format: biochemical
T3 construct: these vesicular particles are isolated from the hypothalamus of male rat brains; from tissue; host or cells: hypothalamus of male rat brains, synaptosomes (P2 fraction)
T3 sequence (Q63380 1-617): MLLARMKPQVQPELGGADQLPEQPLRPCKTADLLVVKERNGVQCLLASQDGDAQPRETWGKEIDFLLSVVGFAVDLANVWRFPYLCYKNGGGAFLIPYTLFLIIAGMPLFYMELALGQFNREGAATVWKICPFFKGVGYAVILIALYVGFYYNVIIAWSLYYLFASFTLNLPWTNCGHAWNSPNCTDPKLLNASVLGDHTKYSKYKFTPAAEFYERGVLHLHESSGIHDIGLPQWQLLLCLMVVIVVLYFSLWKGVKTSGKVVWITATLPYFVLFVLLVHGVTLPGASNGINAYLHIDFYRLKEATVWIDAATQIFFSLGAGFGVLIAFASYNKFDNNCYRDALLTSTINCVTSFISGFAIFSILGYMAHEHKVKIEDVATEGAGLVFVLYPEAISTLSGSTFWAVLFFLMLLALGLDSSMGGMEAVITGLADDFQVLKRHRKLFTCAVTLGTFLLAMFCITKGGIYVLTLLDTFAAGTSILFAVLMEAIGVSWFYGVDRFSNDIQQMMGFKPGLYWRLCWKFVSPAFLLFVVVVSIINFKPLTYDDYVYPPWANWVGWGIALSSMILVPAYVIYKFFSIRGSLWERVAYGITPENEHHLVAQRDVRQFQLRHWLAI
Method: as §1, §2, §3

Row | Compound | inhibition at 1 µM (human μ opiate receptor) [%] | also measured
1 | CN(C)C(c1cccc(F)c1)C1CCC(Cc2nc(-c3ccccc3)no2)CC1 (stereo not drawn) [Example 232, {(3-fluorophenyl)-[4-(3-phenyl-[1,2,4]oxadiazol-5-ylmethyl)-cyclohexyl]-methyl}-dimethylamine] | 41 | –
2 | COc1ccc(Cc2noc(C=C3CCC(C(c4ccccc4)N(C)C)CC3)n2)cc1 (stereo not drawn) [Example 79, ({4-[3-(4-methoxybenzyl)-[1,2,4]oxadiazol-5-ylmethylene]-cyclohexyl}-phenylmethyl)-dimethylamine] | 43 | –
3 | CN(C)C(c1cccs1)C1CCC(C=Cc2nc(Cc3ccc(Cl)cc3)no2)CC1 (stereo not drawn) [Example 155, [(4-{2-[3-(4-chlorobenzyl)-[1,2,4]oxadiazol-5-yl]-vinyl}-cyclohexyl)-thiophen-2-yl-methyl]-dimethylamine] | 52 | –
4 | Cc1cccc(-c2noc(C=C3CCC(C(c4ccccc4)N(C)C)CC3)n2)c1 (stereo not drawn) [Example 135, dimethyl-{phenyl-[4-(3-m-tolyl-[1,2,4]oxadiazol-5-ylmethylene)-cyclohexyl]-methyl}-amine] | 44 | –
5 | CN(C)C(c1ccccc1)C1CCC(C=Cc2nc(Cc3ccc(Cl)cc3)no2)CC1 (stereo not drawn) [Example 150, [(4-{2-[3-(4-chlorobenzyl)-[1,2,4]oxadiazol-5-yl]-vinyl}-cyclohexyl)-phenylmethyl]-dimethylamine] | – | μ opioid receptor, % inhibition [1 μM] (human μ opiate receptor): 56%
6 | CN(C)C(c1ccccc1)C1CCC(Cc2nc(Cc3ccc(Cl)cc3)no2)CC1 (stereo not drawn) [Example 43, (4-((3-(4-chlorobenzyl)-1,2,4-oxadiazol-5-yl)methyl)cyclohexyl)-N,N-dimethyl(phenyl)methanamine] | 83 | Ki (human μ opiate receptor): 44 nM; inhibition at 10 µM (Serotonin reuptake): 95%; inhibition at 10 µM (Noradrenalin reuptake): 95%
7 | Cc1cccc(-c2noc(C=CC3CCC(C(c4cccs4)N(C)C)CC3)n2)c1 (stereo not drawn) [Example 195, dimethyl-(thiophen-2-yl-{4-[2-(3-m-tolyl-[1,2,4]oxadiazol-5-yl)-vinyl]-cyclohexyl}-methyl)-amine] | 48 | –
8 | Cc1cccc(-c2noc(CCC3CCC(C(c4ccccc4)N(C)C)CC3)n2)c1 (stereo not drawn) [Example 296, dimethyl-(phenyl-{4-[2-(3-m-tolyl-[1,2,4]oxadiazol-5-yl)-ethyl]-cyclohexyl}-methyl)-amine] | 45 | –
9 | COc1ccc(Cc2noc(CC3CCC(C(c4ccccc4)N(C)C)CC3)n2)cc1 (stereo not drawn) [Example 239, ({4-[3-(4-methoxybenzyl)-[1,2,4]oxadiazol-5-ylmethyl]-cyclohexyl}-phenylmethyl)-dimethylamine] | 66 | –
10 | CN(C)C(c1ccc(F)cc1)C1CCC(=Cc2nc(-c3cccc(Cl)c3Cl)no2)CC1 (stereo not drawn) [Example 55, [{4-[3-(2,3-dichlorophenyl)-[1,2,4]oxadiazol-5-ylmethylene]-cyclohexyl}-(4-fluorophenyl)-methyl]-dimethylamine] | 53 | –
11 | Cc1ccc(-c2noc(C=CC3CCC(C(c4cccs4)N(C)C)CC3)n2)n1C (stereo not drawn) [Example 224, [(4-{2-[3-(1,5-dimethyl-1H-pyrrol-2-yl)-[1,2,4]oxadiazol-5-yl]-vinyl}-cyclohexyl)-thiophen-2-yl-methyl]-dimethylamine] | 54 | –
12 | CN(C)C(c1ccccc1)C1CCC(C=Cc2nc(Cc3ccc(Cl)cc3)no2)CC1 (stereo not drawn) [Example 149, [(4-{2-[3-(4-chlorobenzyl)-[1,2,4]oxadiazol-5-yl]-vinyl}-cyclohexyl)-phenylmethyl]-dimethylamine] | 42 | –
13 | CN(C)C(c1ccccc1)C1CCC(CCc2nc(Cc3ccc(Cl)cc3)no2)CC1 (stereo not drawn) [Example 273, [(4-{2-[3-(4-chlorobenzyl)-[1,2,4]oxadiazol-5-yl]-ethyl}-cyclohexyl)-phenylmethyl]-dimethylamine] | 68 | –
14 | CN(C)C(c1ccccc1)C1CCC(CCc2nc(-c3cccc(Cl)c3Cl)no2)CC1 (stereo not drawn) [Example 304, [(4-{2-[3-(2,3-dichlorophenyl)-[1,2,4]oxadiazol-5-yl]-ethyl}-cyclohexyl)-phenylmethyl]-dimethylamine] | 51 | –
15 | CN(C)C(c1ccccc1)C1CCC(CCc2nc(-c3ccc(F)cc3F)no2)CC1 (stereo not drawn) [Example 281, [(4-{2-[3-(2,4-difluorophenyl)-[1,2,4]oxadiazol-5-yl]-ethyl}-cyclohexyl)-phenylmethyl]-dimethylamine] | 69 | –
16 | CN(C)C(c1ccccc1)C1CCC(Cc2nc(-c3cccc(Cl)c3Cl)no2)CC1 (stereo not drawn) [Example 246, ({4-[3-(2,3-dichlorophenyl)-[1,2,4]oxadiazol-5-ylmethyl]-cyclohexyl}-phenylmethyl)-dimethylamine] | 56 | –
17 | Cc1cccc(-c2noc(CC3CCC(C(c4ccccc4)N(C)C)CC3)n2)c1 (stereo not drawn) [Example 258, dimethyl-{phenyl-[4-(3-m-tolyl-[1,2,4]oxadiazol-5-ylmethyl)-cyclohexyl]-methyl}-amine] | 53 | –
18 | CN(C)C(c1ccccc1)C1CCC(=Cc2nc(-c3ccccc3)no2)CC1 (stereo not drawn) [Example 69, dimethyl-{phenyl-[4-(3-phenyl-[1,2,4]oxadiazol-5-ylmethylene)-cyclohexyl]-methyl}-amine] | 40 | –
19 | Cc1cccc(-c2noc(C=CC3CCC(C(c4ccccc4)N(C)C)CC3)n2)c1 (stereo not drawn) [Example 183, dimethyl-(phenyl-{4-[2-(3-m-tolyl-[1,2,4]oxadiazol-5-yl)-vinyl]-cyclohexyl}-methyl)-amine] | 40 | –
20 | CN(C)C(c1ccccc1)C1CCC(Cc2nc(-c3cccc(Cl)c3)no2)CC1 (stereo not drawn) [Example 243, ({4-[3-(3-chlorophenyl)-[1,2,4]oxadiazol-5-ylmethyl]-cyclohexyl}-phenylmethyl)-dimethylamine] | 55 | Ki (human μ opiate receptor): 320 nM
21 | COc1ccc(Cc2noc(CCC3CCC(C(c4ccccc4)N(C)C)CC3)n2)cc1 (stereo not drawn) [Example 269, [(4-{2-[3-(4-methoxybenzyl)-[1,2,4]oxadiazol-5-yl]-ethyl}-cyclohexyl)-phenylmethyl]-dimethylamine] | 43 | –
22 | CN(C)C(c1ccccc1)C1CCC(Cc2nc(-c3ccccc3)no2)CC1 (stereo not drawn) [Example 234, dimethyl-{phenyl-[4-(3-phenyl-[1,2,4]oxadiazol-5-ylmethyl)-cyclohexyl]-methyl}-amine] | 64 | –
23 | COc1ccc(Cc2noc(CC3CCC(C(c4ccccc4)N(C)C)CC3)n2)cc1 (stereo not drawn) [Example 44, (4-((3-(4-methoxybenzyl)-1,2,4-oxadiazol-5-yl)methyl)cyclohexyl)-N,N-dimethyl(phenyl)methanamine] | – | μ opioid receptor, % inhibition [1 μM] (human μ opiate receptor): 75%; Ki (human μ opiate receptor): 72 nM; inhibition at 10 µM (Serotonin reuptake): 99%; inhibition at 10 µM (Noradrenalin reuptake): 100%
